Laboratory results reported in US10294202B2, “Pyrrolidinones as herbicides” (FMC Corporation, priority 2013, dated 2019).

Legend:
[1] = test system: galium; experiment: Test A postemergence herbicide test; type: in vivo, Galium aparine
Method in brief: (§1)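 Plants at the one- to two-leaf stage, 2–10 cm tall, grown in loam/sand pots, received postemergence sprays of the test chemicals. After about 10 days in the greenhouse, injury was scored visually against untreated controls on a 0–100 scale (0 none, 100 complete control).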

[2] = test system: ducksalad; experiment: Test B flooded paddy test; type: in vivo, Heteranthera limosa; settings: 500 g ai/ha, Flood; scale of 0 to 100 where 0 is no effect and 100 is complete control
Method in brief: (§2)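 Plants were grown to the 2-leaf stage, then pots were flooded to 3 cm above the soil and compound was applied directly into the paddy water, with that depth held throughout. After 13 to 15 days in a greenhouse, injury was rated visually against untreated controls on a 0 to 100 scale (100 = complete control).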

[3] = test system: blackgrass; experiment: Test A postemergence herbicide test; type: in vivo, Alopecurus myosuroides
Method in brief: as §1

[4] = test system: giant foxtail; experiment: Test A pre-/postemergence herbicide test; type: in vivo, Setaria faberii
Method in brief: (§3)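 Formulated compound (non-phytotoxic solvent, surfactant) sprayed pre- onto soil of seeded loam/sand pots or post- onto seedlings at 1–2 leaves; ~10 d greenhouse; 0–100 visual control rating versus untreated.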

[5] = test system: kochia; experiment: Test A pre-/postemergence herbicide test; type: in vivo, Kochia scoparia
Method in brief: as §3

[6] = test system: ryegrass, Italian; experiment: Test A pre-/postemergence herbicide test; type: in vivo, Lolium multiflorum
Method in brief: as §3

[7] = test system: barnyardgrass; experiment: Test A pre-/postemergence herbicide test; type: in vivo, Echinochloa crus-galli
Method in brief: as §3

[8] = test system: pigweed; experiment: Test A pre-/postemergence herbicide test; type: in vivo, Amaranthus retroflexus
Method in brief: as §3

[9] = test system: barnyardgrass; experiment: Test B flooded paddy test; type: in vivo, Echinochloa crus-galli; settings: 500 g ai/ha, Flood; scale of 0 to 100 where 0 is no effect and 100 is complete control
Method in brief: as §2

[10] = test system: ragweed; experiment: Test A pre-/postemergence herbicide test; type: in vivo, Ambrosia elatior
Method in brief: as §3

[11] = test system: rice; experiment: Test B flooded paddy test; type: in vivo, Oryza sativa; settings: 500 g ai/ha, Flood; scale of 0 to 100 where 0 is no effect and 100 is complete control
Method in brief: as §2

[12] = test system: sedge, umbrella; experiment: Test B flooded paddy test; type: in vivo, Cyperus difformis; settings: 500 g ai/ha, Flood; scale of 0 to 100 where 0 is no effect and 100 is complete control
Method in brief: as §2

[13] = test system: corn; experiment: Test A pre-/postemergence herbicide test; type: in vivo, Zea mays; settings: Postemergence
Method in brief: as §3

[14] = test system: wheat; experiment: Test A pre-/postemergence herbicide test; type: in vivo, Triticum aestivum; settings: Postemergence
Method in brief: as §3

[15] = 125 g ai/ha, 0 to 100 scale, 0 is no effect, 100 is complete control
[16] = 125 g ai/ha, visual rating, 0 to 100 scale, 0 no effect, 100 complete control, approximately 10 days, preemergence
[17] = Postemergence, 125 g ai/ha, 0 to 100 scale, 0 is no effect, 100 is complete control
[18] = preemergence, 500 g ai/ha, 0 to 100 scale
[19] = preemergence, 500 g ai/ha, 0 to 100 scale, 0 is no effect and 100 is complete control
[20] = preemergence, 500 g ai/ha, 0 to 100 scale (0 no effect, 100 complete control)
[21] = 125 g ai/ha, visual rating on 0 to 100 scale (0 no effect, 100 complete control), approx. 10 days
[22] = 500 g ai/ha, 0 to 100 scale (0 no effect, 100 complete control)
[23] = Postemergence, 125 g ai/ha, visual rating on 0 to 100 scale (0 no effect, 100 complete control), approx. 10 days
[24] = Postemergence, 500 g ai/ha, 0 to 100 scale (0 no effect, 100 complete control)
[25] = Preemergence, 125 g ai/ha, 0 to 100 scale where 0 is no effect and 100 is complete control
[26] = Preemergence, 500 g ai/ha, visual rating on 0 to 100 scale (0 no effect, 100 complete control)

O=C1NCC(c2cccc(C(F)F)c2)C1C(=O)Nc1ccc(F)c(F)c1F (racemic) [Compound 165]
Plant response rating, Galium [1, 15]: 40
Galium plant response rating (0 to 100 scale, 0 is no effect, 100 is complete control) ([1]; 500 g ai/ha): 50
Plant response rating, Ducksalad [2]: 100
Plant response rating, Blackgrass [3, 15]: 60
Blackgrass plant response rating (0 to 100 scale, 0 is no effect, 100 is complete control) ([3]; 500 g ai/ha): 70
Plant response rating, Foxtail, Giant [4, 16]: 90
Plant response rating, Foxtail, Giant [4, 17]: 70
Foxtail, Giant plant response rating (0 to 100 scale, 0 is no effect, 100 is complete control) ([4]; Postemergence, 500 g ai/ha): 90
Plant response rating, Foxtail, Giant [4, 18]: 90
Plant response rating, Kochia [5, 16]: 70
Plant response rating, Kochia [5, 17]: 50
Kochia plant response rating (0 to 100 scale, 0 is no effect, 100 is complete control) ([5]; Postemergence, 500 g ai/ha): 70
Plant response rating, Kochia [5, 19]: 70
Plant response rating, Ryegrass, Italian [6, 16]: 0
Plant response rating, Ryegrass, Italian [6, 17]: 40
Ryegrass, Italian plant response rating (0 to 100 scale, 0 is no effect, 100 is complete control) ([6]; Postemergence, 500 g ai/ha): 50
Plant response rating, Ryegrass, Italian [6, 19]: 20
Plant response rating, Barnyardgrass [7, 16]: 90
Plant response rating, Barnyardgrass [7, 17]: 90
Barnyardgrass plant response rating (0 to 100 scale, 0 is no effect, 100 is complete control) ([7]; Postemergence, 500 g ai/ha): 90
Plant response rating, Barnyardgrass [7, 20]: 90
Plant response rating, Pigweed [8, 16]: 50
Plant response rating, Pigweed [8, 17]: 30
Pigweed plant response rating (0 to 100 scale, 0 is no effect, 100 is complete control) ([8]; Postemergence, 500 g ai/ha): 50
Plant response rating, Pigweed [8, 19]: 70
Plant response rating, Barnyardgrass [9]: 75
Plant response rating, Ragweed [10, 16]: 0
Plant response rating, Ragweed [10, 17]: 20
Ragweed plant response rating (0 to 100 scale, 0 is no effect, 100 is complete control) ([10]; Postemergence, 500 g ai/ha): 50
Plant response rating, Ragweed [10, 19]: 80
Plant response rating, Rice [11]: 10
Plant response rating, Sedge, Umbrella [12]: 0
Plant response rating, Corn [13, 15]: 60
Corn plant response rating (0 to 100 scale, 0 is no effect, 100 is complete control) ([13]; 500 g ai/ha): 80
Plant response rating, Wheat [14, 15]: 30
Wheat plant response rating (0 to 100 scale, 0 is no effect, 100 is complete control) ([14]; 500 g ai/ha): 70

CCc1cccc(C2CNC(=O)C2C(=O)Nc2ccc(F)c(F)c2F)c1 (racemic) [Compound 171]
Plant response rating, Galium [1, 15]: 50
Galium plant response rating (0 to 100 scale, 0 is no effect, 100 is complete control) ([1]; 500 g ai/ha): 70
Plant response rating, Ducksalad [2]: 100
Plant response rating, Blackgrass [3, 15]: 50
Blackgrass plant response rating (0 to 100 scale, 0 is no effect, 100 is complete control) ([3]; 500 g ai/ha): 60
Plant response rating, Foxtail, Giant [4, 16]: 90
Plant response rating, Foxtail, Giant [4, 17]: 60
Foxtail, Giant plant response rating (0 to 100 scale, 0 is no effect, 100 is complete control) ([4]; Postemergence, 500 g ai/ha): 80
Plant response rating, Foxtail, Giant [4, 18]: 90
Plant response rating, Kochia [5, 16]: 60
Plant response rating, Kochia [5, 17]: 0
Kochia plant response rating (0 to 100 scale, 0 is no effect, 100 is complete control) ([5]; Postemergence, 500 g ai/ha): 30
Plant response rating, Kochia [5, 19]: 70
Plant response rating, Ryegrass, Italian [6, 16]: 0
Plant response rating, Ryegrass, Italian [6, 17]: 20
Ryegrass, Italian plant response rating (0 to 100 scale, 0 is no effect, 100 is complete control) ([6]; Postemergence, 500 g ai/ha): 30
Plant response rating, Ryegrass, Italian [6, 19]: 30
Plant response rating, Barnyardgrass [7, 16]: 90
Plant response rating, Barnyardgrass [7, 17]: 90
Barnyardgrass plant response rating (0 to 100 scale, 0 is no effect, 100 is complete control) ([7]; Postemergence, 500 g ai/ha): 90
Plant response rating, Barnyardgrass [7, 20]: 90
Plant response rating, Pigweed [8, 16]: 20
Plant response rating, Pigweed [8, 17]: 0
Pigweed plant response rating (0 to 100 scale, 0 is no effect, 100 is complete control) ([8]; Postemergence, 500 g ai/ha): 40
Plant response rating, Pigweed [8, 19]: 40
Plant response rating, Barnyardgrass [9]: 70
Plant response rating, Ragweed [10, 16]: 0
Plant response rating, Ragweed [10, 17]: 0
Ragweed plant response rating (0 to 100 scale, 0 is no effect, 100 is complete control) ([10]; Postemergence, 500 g ai/ha): 30
Plant response rating, Ragweed [10, 19]: 30
Plant response rating, Rice [11]: 0
Plant response rating, Sedge, Umbrella [12]: 0
Plant response rating, Corn [13, 15]: 20
Corn plant response rating (0 to 100 scale, 0 is no effect, 100 is complete control) ([13]; 500 g ai/ha): 70
Plant response rating, Wheat [14, 15]: 0
Wheat plant response rating (0 to 100 scale, 0 is no effect, 100 is complete control) ([14]; 500 g ai/ha): 50

O=C1NCC(c2cccc(C(F)(F)F)c2)C1C(=O)Nc1cccc(C(F)(F)F)c1 (centres unmarked) [Compound 313]
Plant response rating, Galium [1, 21]: 0
Plant response rating, Galium [1, 22]: 0
Plant response rating, Ducksalad [2]: 0
Plant response rating, Blackgrass [3, 21]: 0
Plant response rating, Blackgrass [3, 22]: 0
Plant response rating, Foxtail, Giant [4, 23]: 40
Plant response rating, Foxtail, Giant [4, 24]: 70
Plant response rating, Foxtail, Giant [4, 25]: 30
Foxtail, Giant plant response rating [4, 26]: 80
Plant response rating, Kochia [5, 23]: 0
Plant response rating, Kochia [5, 24]: 0
Plant response rating, Kochia [5, 25]: 0
Kochia plant response rating [5, 26]: 0
Plant response rating, Ryegrass, Italian [6, 23]: 0
Plant response rating, Ryegrass, Italian [6, 24]: 0
Plant response rating, Ryegrass, Italian [6, 25]: 0
Ryegrass, Italian plant response rating [6, 26]: 0
Plant response rating, Barnyardgrass [7, 23]: 20
Plant response rating, Barnyardgrass [7, 24]: 80
Plant response rating, Barnyardgrass [7, 25]: 50
Barnyardgrass plant response rating [7, 26]: 80
Plant response rating, Pigweed [8, 23]: 0
Plant response rating, Pigweed [8, 24]: 0
Plant response rating, Pigweed [8, 25]: 0
Pigweed plant response rating [8, 26]: 0
Plant response rating, Barnyardgrass [9]: 60
Plant response rating, Ragweed [10, 23]: 0
Plant response rating, Ragweed [10, 24]: 0
Plant response rating, Ragweed [10, 25]: 0
Ragweed plant response rating [10, 26]: 0
Plant response rating, Rice [11]: 0
Plant response rating, Sedge, Umbrella [12]: 0
Plant response rating, Corn [13, 21]: 0
Plant response rating, Corn [13, 22]: 0
Plant response rating, Wheat [14, 21]: 0
Plant response rating, Wheat [14, 22]: 0

O=C1NCC(c2cccc(OC(F)F)c2)C1C(=O)Nc1ccccc1Cl (centres unmarked) [Compound 229]
Plant response rating, Galium [1, 15]: 60
Galium plant response rating (0 to 100 scale, 0 is no effect, 100 is complete control) ([1]; 500 g ai/ha): 70
Plant response rating, Ducksalad [2]: 100
Plant response rating, Blackgrass [3, 15]: 40
Blackgrass plant response rating (0 to 100 scale, 0 is no effect, 100 is complete control) ([3]; 500 g ai/ha): 70
Plant response rating, Foxtail, Giant [4, 16]: 90
Plant response rating, Foxtail, Giant [4, 17]: 80
Foxtail, Giant plant response rating (0 to 100 scale, 0 is no effect, 100 is complete control) ([4]; Postemergence, 500 g ai/ha): 90
Plant response rating, Foxtail, Giant [4, 19]: 90
Plant response rating, Kochia [5, 16]: 0
Plant response rating, Kochia [5, 17]: 10
Kochia plant response rating (0 to 100 scale, 0 is no effect, 100 is complete control) ([5]; Postemergence, 500 g ai/ha): 60
Plant response rating, Kochia [5, 19]: 70
Plant response rating, Ryegrass, Italian [6, 16]: 10
Plant response rating, Ryegrass, Italian [6, 17]: 30
Ryegrass, Italian plant response rating (0 to 100 scale, 0 is no effect, 100 is complete control) ([6]; Postemergence, 500 g ai/ha): 40
Plant response rating, Ryegrass, Italian [6, 19]: 20
Plant response rating, Barnyardgrass [7, 16]: 70
Plant response rating, Barnyardgrass [7, 17]: 70
Barnyardgrass plant response rating (0 to 100 scale, 0 is no effect, 100 is complete control) ([7]; Postemergence, 500 g ai/ha): 80
Plant response rating, Barnyardgrass [7, 19]: 90
Plant response rating, Pigweed [8, 16]: 0
Plant response rating, Pigweed [8, 17]: 0
Pigweed plant response rating (0 to 100 scale, 0 is no effect, 100 is complete control) ([8]; Postemergence, 500 g ai/ha): 0
Plant response rating, Pigweed [8, 19]: 0
Plant response rating, Barnyardgrass [9]: 50
Plant response rating, Ragweed [10, 16]: 0
Plant response rating, Ragweed [10, 17]: 20
Ragweed plant response rating (0 to 100 scale, 0 is no effect, 100 is complete control) ([10]; Postemergence, 500 g ai/ha): 60
Plant response rating, Rice [11]: 0
Plant response rating, Sedge, Umbrella [12]: 0
Plant response rating, Corn [13, 15]: 0
Corn plant response rating (0 to 100 scale, 0 is no effect, 100 is complete control) ([13]; 500 g ai/ha): 0
Plant response rating, Wheat [14, 15]: 0
Wheat plant response rating (0 to 100 scale, 0 is no effect, 100 is complete control) ([14]; 500 g ai/ha): 0
